Data set [1] is described as follows: Particle size by light diffraction (Sympatec HELOS, dry powder dispersion). The class given is physicochemical. The protocol: Dispersion was performed on a sample of Form A of 3-fluoro-7-(2,2,2-trifluoroethoxy)phenoxathiin-10,10-dioxide produced accordance with the method presented in Example 4. Dispersion pressure of 0.5 to 2.0 bar was used to disperse the sample particles. Samples were analyzed by microscopy prior to particle size analysis to assess aggregation and estimate particle size, and without fracturing primary particles or causing aggregation. […] Particle size was measured using a Sympatec HELOS equipped with VIERI dry powder feeder unit, and sample measurements for optimization of jet pressure and repeatability were performed according to USP<429>, Method Validation Protocol ANC00756, and TM-1509 Rev.00 (draft).

Data set [2] in a line: Dissolution temperature in 10% (v/v) water in acetic acid. It counts as physicochemical. As to conditions: ratio (w/v) of compound to solvent about 1.6 g: 10 mL.

Structures are written as SMILES.

For `O=S1(=O)c2ccc(F)cc2Oc2cc(OCC(F)(F)F)ccc21` [Form A, 3-fluoro-7-(2,2,2-trifluoroethoxy)phenoxathiin-10,10-dioxide], the x10 in data set [1] (Dispersion Pressure 0.5 bar) was determined as 3.05 μm; in data set [1] (Dispersion Pressure 1 bar), 2.54 μm; in data set [1] (Dispersion Pressure 1.5 bar), 2.21 μm; in data set [1] (Dispersion Pressure 2 bar), 1.94 μm. Moreover, the x50 is given as 9.07 μm in data set [1] (Dispersion Pressure 0.5 bar), 7.96 μm in data set [1] (Dispersion Pressure 1 bar), 7.35 μm in data set [1] (Dispersion Pressure 1.5 bar) and 6.88 μm in data set [1] (Dispersion Pressure 2 bar). The x90 in data set [1] (Dispersion Pressure 0.5 bar) came out at 24.49 μm; in data set [1] (Dispersion Pressure 1 bar), 19.32 μm; in data set [1] (Dispersion Pressure 1.5 bar) it was 17.1 μm; in data set [1] (Dispersion Pressure 2 bar), 15.32 μm. For the same compound, the “temperature at which the form dissolves” value in data set [2] was 75-85 °C.

The values above are taken from patent US7812050B2, “Polymorphic form of fluoro-7-(2,2,2-trifluoroethoxy) phenoxathiin-10,10-dioxide” (CeNeRx BioPharma, Inc., priority 2006, dated 2010).
